Measured values: patent US7998989B2, “2-Imino-1,3-thiazoline-based compounds and T-type calcium channel inhibitors containing the same” (Korea Institute of Science and Technology, priority 2007, dated 2011)
Like-named read-outs stand apart in the source and are kept apart here.

Tests used:
[1] = molecular target: T1, α1G T-type calcium channel (Homo sapiens, UniProt O43497); experiment: Assay for % inhibiting activity against T-type calcium channel using FDSS6000 (fluo-3 calcium imaging, KCl activation); format: cell-based; details: HEK293 cells stably expressing α1G T-type calcium channel and Kir2.1, compounds of the examples; for inhibition at 10 µM: read-out: FDSS (% inhibition)/10uM
T1 construct: host or cells: HEK293
How it was run: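 Percent inhibition derived from […] area against untreated control (100%), after 75 s compound pre-exposure and 75 mM KCl activation. Cells: HEK293 with stable α1G plus Kir2.1, fluo-3/AM-labelled (5 μM), assayed in pH 7.4 HEPES containing 10 mM CaCl2.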

T1 sequence (O43497 whole entry): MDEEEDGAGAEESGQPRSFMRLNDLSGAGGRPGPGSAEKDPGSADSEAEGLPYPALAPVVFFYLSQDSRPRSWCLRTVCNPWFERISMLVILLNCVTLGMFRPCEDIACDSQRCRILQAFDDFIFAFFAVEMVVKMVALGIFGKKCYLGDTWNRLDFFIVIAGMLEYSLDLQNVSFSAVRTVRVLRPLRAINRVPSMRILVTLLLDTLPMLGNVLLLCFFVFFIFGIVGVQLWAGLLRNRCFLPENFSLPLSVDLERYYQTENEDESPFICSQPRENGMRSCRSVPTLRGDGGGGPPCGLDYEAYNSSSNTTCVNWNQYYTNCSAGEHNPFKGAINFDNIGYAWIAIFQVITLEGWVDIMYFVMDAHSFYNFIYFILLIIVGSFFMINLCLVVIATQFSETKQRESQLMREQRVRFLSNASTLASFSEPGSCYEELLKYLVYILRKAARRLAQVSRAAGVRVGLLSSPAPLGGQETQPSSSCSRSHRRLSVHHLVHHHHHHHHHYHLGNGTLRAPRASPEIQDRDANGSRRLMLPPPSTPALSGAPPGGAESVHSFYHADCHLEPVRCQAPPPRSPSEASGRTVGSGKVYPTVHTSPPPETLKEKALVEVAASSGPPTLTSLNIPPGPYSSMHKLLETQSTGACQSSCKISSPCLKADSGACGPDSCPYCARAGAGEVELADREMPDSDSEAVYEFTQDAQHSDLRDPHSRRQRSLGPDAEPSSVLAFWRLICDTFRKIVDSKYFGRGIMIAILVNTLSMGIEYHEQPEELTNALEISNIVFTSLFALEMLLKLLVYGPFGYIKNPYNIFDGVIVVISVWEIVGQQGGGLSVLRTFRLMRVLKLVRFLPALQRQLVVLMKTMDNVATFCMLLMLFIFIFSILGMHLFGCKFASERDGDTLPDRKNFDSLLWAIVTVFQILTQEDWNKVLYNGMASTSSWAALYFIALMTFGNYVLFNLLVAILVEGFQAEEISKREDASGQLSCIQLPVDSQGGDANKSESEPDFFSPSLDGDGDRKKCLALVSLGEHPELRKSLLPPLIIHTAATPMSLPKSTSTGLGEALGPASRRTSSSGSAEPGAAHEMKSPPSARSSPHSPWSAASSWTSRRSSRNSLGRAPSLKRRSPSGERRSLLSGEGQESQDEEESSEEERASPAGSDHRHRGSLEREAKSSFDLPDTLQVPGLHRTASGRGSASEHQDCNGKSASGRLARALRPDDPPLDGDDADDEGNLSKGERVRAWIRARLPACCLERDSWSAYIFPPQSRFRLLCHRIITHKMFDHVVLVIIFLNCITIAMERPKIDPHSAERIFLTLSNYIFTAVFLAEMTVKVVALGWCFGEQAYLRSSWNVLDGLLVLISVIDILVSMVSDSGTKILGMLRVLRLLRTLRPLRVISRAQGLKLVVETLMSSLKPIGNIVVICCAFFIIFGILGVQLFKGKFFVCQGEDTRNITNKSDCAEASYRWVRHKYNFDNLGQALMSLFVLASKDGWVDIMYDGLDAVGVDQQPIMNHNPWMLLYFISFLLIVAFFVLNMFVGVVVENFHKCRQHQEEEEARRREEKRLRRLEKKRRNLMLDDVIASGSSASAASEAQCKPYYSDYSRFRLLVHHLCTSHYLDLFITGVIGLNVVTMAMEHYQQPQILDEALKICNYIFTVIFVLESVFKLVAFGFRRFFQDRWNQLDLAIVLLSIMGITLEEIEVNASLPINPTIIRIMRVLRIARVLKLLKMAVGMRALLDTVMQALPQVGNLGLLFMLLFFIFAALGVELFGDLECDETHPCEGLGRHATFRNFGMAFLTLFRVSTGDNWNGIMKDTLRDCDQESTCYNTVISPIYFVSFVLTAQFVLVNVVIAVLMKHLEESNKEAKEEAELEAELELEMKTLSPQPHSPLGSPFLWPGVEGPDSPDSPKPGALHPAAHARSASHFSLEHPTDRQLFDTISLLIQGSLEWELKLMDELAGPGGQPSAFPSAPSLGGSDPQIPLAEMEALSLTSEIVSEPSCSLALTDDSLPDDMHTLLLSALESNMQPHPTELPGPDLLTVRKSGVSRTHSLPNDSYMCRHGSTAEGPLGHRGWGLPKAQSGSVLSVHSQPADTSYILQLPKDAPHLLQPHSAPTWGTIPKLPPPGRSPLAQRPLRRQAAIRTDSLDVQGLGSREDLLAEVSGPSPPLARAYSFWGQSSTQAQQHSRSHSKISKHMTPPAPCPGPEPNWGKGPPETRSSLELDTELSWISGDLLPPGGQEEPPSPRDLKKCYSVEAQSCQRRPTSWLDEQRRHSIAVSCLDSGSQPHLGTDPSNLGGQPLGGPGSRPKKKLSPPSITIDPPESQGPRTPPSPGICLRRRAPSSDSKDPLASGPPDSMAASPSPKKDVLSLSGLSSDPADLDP

| Structure (SMILES) | melting point [°C] | inhibition at 10 µM ([1]; HEK293, 10 μM) [%] | FDSS (% inhibition)/10uM ([1]; 10 μM) [%] | inhibition at 10 µM ([1]; 10 μM) [%] |
| --- | --- | --- | --- | --- |
| Br.CN1C(=NC2CCCCCC2)SCC1C(=O)NCc1ccccc1C(F)(F)F (stereo not shown) [KHG24670, (2-cycloheptylimino-3-methyl-1,3-thiazolidine-4-yl)-N-(2-trifluoromethylbenzyl)-carboxamide hydrobromide] | 236.9 | 46.7 |  |  |
| CN1C(=NC2CCCCCC2)SCC1C(=O)NCc1ccccc1C(F)(F)F (stereo not shown) [KHG24671, (2-cycloheptylimino-3-methyl-1,3-thiazolidine-4-yl)-N-(2-trifluoromethylbenzyl)-carboxamide] | 223 |  | 47.2 |  |
| CCCCN1C(=NC23CC4CC(CC(C4)C2)C3)SCC1CC(=O)Nc1ccc(Cl)cc1.Cl (stereo not shown) [KHG24775, [2-(1-adamantylimino)-3-(n-butyl)-1,3-thiazolidine-4-yl]-N-(4-chlorophenyl)-acetamide hydrochloride] | 158 | 62.9 |  |  |
| CCCCc1ccc(NC(=O)CC2CSC(=NC34CC5CC(CC(C5)C3)C4)N2CCCC)cc1.Cl (stereo not shown) [KHG24776, [2-(1-adamantylimino)-3-(n-butyl)-1,3-thiazolidine-4-yl]-N-(4-n-butylphenyl)-acetamide hydrochloride] | 169 | 33.8 |  |  |
| CCCCN1C(=NC23CC4CC(CC(C4)C2)C3)SCC1CC(=O)Nc1ccc(C(F)(F)F)cc1.Cl (stereo not shown) [KHG24777, [2-(1-adamantylimino)-3-(n-butyl)-1,3-thiazolidine-4-yl]-N-(4-trifluoromethylphenyl)-acetamide hydrochloride] | 220 | 49.2 |  |  |
| CCCCN1C(=NC23CC4CC(CC(C4)C2)C3)SCC1CC(=O)Nc1ccc(F)cc1.Cl (stereo not shown) [KHG24780, [2-(1-adamantylimino)-3-(n-butyl)-1,3-thiazolidine-4-yl]-N-(4-fluorophenyl)-acetamide hydrochloride] | 163 |  |  | 55.3 |
| CCCCN1C(=NC23CC4CC(CC(C4)C2)C3)SCC1CC(=O)Nc1ccc(C)cc1.Cl (stereo not shown) [KHG24781, [2-(1-adamantylimino)-3-(n-butyl)-1,3-thiazolidine-4-yl]-N-(4-methylphenyl)-acetamide hydrochloride] | 164 | 47.2 |  |  |
| CCCCN1C(=NC23CC4CC(CC(C4)C2)C3)SCC1CC(=O)Nc1ccc(CC)cc1.Cl (stereo not shown) [KHG24782, [2-(1-adamantylimino)-3-(n-butyl)-1,3-thiazolidine-4-yl]-N-(4-ethylphenyl)-acetamide hydrochloride] | 156 | 30.6 |  |  |
| CCCCN1C(=NC23CC4CC(CC(C4)C2)C3)SCC1CC(=O)Nc1ccc(Cl)cc1F.Cl (stereo not shown) [KHG24783, [2-(1-adamantylimino)-3-(n-butyl)-1,3-thiazolidine-4-yl]-N-(4-chloro-2-fluorophenyl)-acetamide hydrochloride] | 161 | 54.4 |  |  |
| CCCCN1C(=NC23CC4CC(CC(C4)C2)C3)SCC1CC(=O)Nc1ccc(Br)cc1.Cl (stereo not shown) [KHG24784, [2-(1-adamantylimino)-3-(n-butyl)-1,3-thiazolidine-4-yl]-N-(4-bromophenyl)-acetamide hydrochloride] | 172 | 36.6 |  |  |
| CCCCN1C(=NC23CC4CC(CC(C4)C2)C3)SCC1CC(=O)Nc1cc(Cl)ccc1F.Cl (stereo not shown) [KHG24785, [2-(1-adamantylimino)-3-(n-butyl)-1,3-thiazolidine-4-yl]-N-(5-chloro-2-fluorophenyl)-acetamide hydrochloride] | 156 | 47.1 |  |  |
| Cl.O=C(CC1CSC(=NC23CC4CC(CC(C4)C2)C3)N1C1CC1)Nc1cc(C(F)(F)F)cc(C(F)(F)F)c1 (stereo not shown) [KHG24792, [2-(1-adamantylimino)-3-cyclopropyl-1,3-thiazolidine-4-yl]-N-(3,5-ditrifluoromethylphenyl)-acetamide hydrochloride] | 258 | 67 |  |  |
| CCCCN1C(=NC23CC4CC(CC(C4)C2)C3)SCC1CC(=O)Nc1ccc(C(C)C)cc1.Cl (stereo not shown) [KHG24795, [2-(1-adamantylimino)-3-(n-butyl)-1,3-thiazolidine-4-yl]-N-(4-isopropylphenyl)-acetamide hydrochloride] | 244 | 33.7 |  |  |
| CCc1ccc(NC(=O)CC2CSC(=NC34CC5CC(CC(C5)C3)C4)N2C2CC2)cc1.Cl (stereo not shown) [KHG24799, [2-(1-adamantylimino)-3-cyclopropyl-1,3-thiazolidine-4-yl]-N-(4-ethylphenyl)-acetamide hydrochloride] | 266 | 63.4 |  |  |
| Cl.O=C(CC1CSC(=NC23CC4CC(CC(C4)C2)C3)N1C1CC1)Nc1ccc(Cl)cc1F (stereo not shown) [KHG24801, [2-(1-adamantylimino)-3-cyclopropyl-1,3-thiazolidine-4-yl]-N-(4-chloro-2-fluorophenyl)-acetamide hydrochloride] | 261 | 63.8 |  |  |

The next lines start with results.

| melting point [°C] | inhibition at 10 µM ([1]; HEK293, 10 μM) [%] | FDSS (% inhibition)/10uM ([1]; 10 μM) [%] | Structure (SMILES) | inhibition at 10 µM ([1]; 10 μM) [%] |
| --- | --- | --- | --- | --- |
| 244 | 62.4 |  | Cl.O=C(CC1CSC(=NC23CC4CC(CC(C4)C2)C3)N1C1CC1)Nc1cc(Cl)ccc1F (stereo not shown) [KHG24802, [2-(1-adamantylimino)-3-cyclopropyl-1,3-thiazolidine-4-yl]-N-(5-chloro-2-fluorophenyl)-acetamide hydrochloride] |  |
| 153 | 32.2 |  | CCCN1C(=NC23CC4CC(CC(C4)C2)C3)SCC1CC(=O)Nc1cc(Cl)cc(Cl)c1.Cl (stereo not shown) [KHG24805, [2-(1-adamantylimino)-3-n-propyl-1,3-thiazolidine-4-yl]-N-(3,5-dichlorophenyl)-acetamide hydrochloride] |  |
| 155 | 59.7 |  | CCCN1C(=NC23CC4CC(CC(C4)C2)C3)SCC1CC(=O)Nc1ccc(C(C)C)cc1.Cl (stereo not shown) [KHG24807, [2-(1-adamantylimino)-3-n-propyl-1,3-thiazolidine-4-yl]-N-(4-isopropylphenyl)-acetamide hydrochloride] |  |
| 213 | 37.6 |  | CCCCc1ccc(NC(=O)CC2CSC(=NC34CC5CC(CC(C5)C3)C4)N2CCC)cc1.Cl (stereo not shown) [KHG24808, [2-(1-adamantylimino)-3-n-propyl-1,3-thiazolidine-4-yl]-N-(4-n-butylphenyl)-acetamide hydrochloride] |  |
| 221 | 57.3 |  | CCCN1C(=NC23CC4CC(CC(C4)C2)C3)SCC1CC(=O)Nc1ccc(C(F)(F)F)cc1.Cl (stereo not shown) [KHG24809, [2-(1-adamantylimino)-3-n-propyl-1,3-thiazolidine-4-yl]-N-(4-trifluoromethylphenyl)-acetamide hydrochloride] |  |
| 228 | 53.8 |  | CCCN1C(=NC23CC4CC(CC(C4)C2)C3)SCC1CC(=O)Nc1ccc(Br)cc1.Cl (stereo not shown) [KHG24812, [2-(1-adamantylimino)-3-n-propyl-1,3-thiazolidine-4-yl]-N-(4-bromophenyl)-acetamide hydrochloride] |  |
| 239 | 61.6 |  | CCCN1C(=NC23CC4CC(CC(C4)C2)C3)SCC1CC(=O)Nc1ccc(C)cc1.Cl (stereo not shown) [KHG24813, [2-(1-adamantylimino)-3-n-propyl-1,3-thiazolidine-4-yl]-N-(4-methylphenyl)-acetamide hydrochloride] |  |
| 135 | 32.7 |  | CCCN1C(=NC23CC4CC(CC(C4)C2)C3)SCC1CC(=O)Nc1ccc(Oc2ccccc2)cc1.Cl (stereo not shown) [KHG24815, [2-(1-adamantylimino)-3-n-propyl-1,3-thiazolidine-4-yl]-N-(4-phenoxyphenyl)-acetamide hydrochloride] |  |
| 130 | 60.5 |  | CCCN1C(=NC23CC4CC(CC(C4)C2)C3)SCC1CC(=O)Nc1cc(Cl)ccc1F.Cl (stereo not shown) [KHG24817, [2-(1-adamantylimino)-3-n-propyl-1,3-thiazolidine-4-yl]-N-(5-chloro-2-fluorophenyl)-acetamide hydrochloride] |  |
| 201 | 68.2 |  | CCCN1C(=NC23CC4CC(CC(C4)C2)C3)SCC1CC(=O)Nc1ccc(C)cc1Cl.Cl (stereo not shown) [KHG24818, [2-(1-adamantylimino)-3-n-propyl-1,3-thiazolidine-4-yl]-N-(2-chloro-4-methylphenyl)-acetamide hydrochloride] |  |
| 158 | 69.2 |  | CCN1C(=NC23CC4CC(CC(C4)C2)C3)SCC1CC(=O)Nc1ccc(C(C)C)cc1.Cl (stereo not shown) [KHG24819, [2-(1-adamantylimino)-3-ethyl-1,3-thiazolidine-4-yl]-N-(4-isopropylphenyl)-acetamide hydrochloride] |  |
| 141 | 58 |  | CCCCc1ccc(NC(=O)CC2CSC(=NC34CC5CC(CC(C5)C3)C4)N2CC)cc1.Cl (stereo not shown) [KHG24820, [2-(1-adamantylimino)-3-ethyl-1,3-thiazolidine-4-yl]-N-(4-n-butylphenyl)-acetamide hydrochloride] |  |
| 236 | 54.1 |  | CC(C)N1C(=NC23CC4CC(CC(C4)C2)C3)SCC1CC(=O)Nc1ccc(Cl)cc1.Cl (stereo not shown) [KHG24823, [2-(1-adamantylimino)-3-isopropyl-1,3-thiazolidine-4-yl]-N-(4-chlorophenyl)-acetamide hydrochloride] |  |
| 246 | 46.5 |  | CC(C)N1C(=NC23CC4CC(CC(C4)C2)C3)SCC1CC(=O)Nc1ccc(C(F)(F)F)cc1.Cl (stereo not shown) [KHG24826, [2-(1-adamantylimino)-3-isopropyl-1,3-thiazolidine-4-yl]-N-(4-trifluoromethylphenyl)-acetamide hydrochloride] |  |
